These are literature values, as cited in patent publication US20250295639A1, “METHODS FOR TREATING HEART DISEASES” (Cytokinetics, Incorporated, priority 2024, published 2025).

The data set relates to patients with oHCM. As to conditions: cited from earlier work.

Consider `CC(C)n1c(=O)cc(N[C@@H](C)c2ccccc2)[nH]c1=O` [mavacamten], for which, under “EXPLORER-HCM”, the “benefit (pVO2, exercise duration, peak METs) in patients receiving beta blockers” value is on record as “attenuation of benefit”. Besides, under “patients with oHCM”, the “peak oxygen uptake (pVO2) and other CPET parameters” value is “has shown efficacy”.
